Laboratory results: patent publication US9012518B2, “Compositions and methods of delivery of pharmacological agents” (Abraxis BioScience, LLC, priority 2002, dated 2015)
Where a name gives a salt, the structure may show the parent alone. Values belong to the compound of their own block, whether it stands above or below them.

Assays:
[1] = biological target: immobilized albumin (Homo sapiens, UniProt P02768); assay: Competition of added albumin with binding of fluorescent paclitaxel to immobilized albumin; conditions: similar effect with binding to endothelial cells
immobilized albumin, sequence (P02768 25-609): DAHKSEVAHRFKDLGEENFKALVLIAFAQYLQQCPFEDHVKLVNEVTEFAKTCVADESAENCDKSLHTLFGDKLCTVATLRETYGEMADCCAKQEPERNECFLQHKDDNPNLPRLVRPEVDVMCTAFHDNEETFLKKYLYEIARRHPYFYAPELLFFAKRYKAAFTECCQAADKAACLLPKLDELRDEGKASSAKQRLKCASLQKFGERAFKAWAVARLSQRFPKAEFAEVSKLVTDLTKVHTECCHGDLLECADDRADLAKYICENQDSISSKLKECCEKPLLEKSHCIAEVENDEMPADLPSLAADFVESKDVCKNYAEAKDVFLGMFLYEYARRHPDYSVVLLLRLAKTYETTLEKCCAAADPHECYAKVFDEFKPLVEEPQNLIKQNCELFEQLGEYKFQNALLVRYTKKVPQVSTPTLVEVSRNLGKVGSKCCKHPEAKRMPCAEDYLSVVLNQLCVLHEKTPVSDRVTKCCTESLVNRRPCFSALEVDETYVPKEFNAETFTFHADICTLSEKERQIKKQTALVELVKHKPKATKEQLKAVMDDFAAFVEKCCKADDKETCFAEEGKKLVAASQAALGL
From the text: Albumin was immobilized on a microtiter plate. […] Thus invention compositions having lower amounts of albumin are preferred.

[2] = 22.5° C.; cited from earlier work
[3] = cited from earlier work

binding of fluorescent paclitaxel to immobilized albumin as added albumin increased [1]: a corresponding decrease in binding
Compound: albumin

Compound: CC(C)c1cccc(C(C)C)c1O [propofol, 2,6-diisopropylphenol]
maximum solubility in water [2]: 1.0 ± 0.02 µM

Compound: CC(=O)N(O)CCCCCNC(=O)CCC(=O)N(O)CCCCCNC(=O)CCC(=O)N(O)CCCCCN [Deferoxamine mesylate USP, N-[5-[3-[(5-aminopentyl)-hydroxycarbamoyl]-propion-amido]pentyl]-3[[5-((N-hydroxyacetamido)pentyl]-carbamoyl]propionohydroxamic acid monomethanesulfonate (salt)]
solubility in water [3]: freely soluble in water
